One data set deals with human keratinocytes. Kind of data set: γH2AX immunofluorescence, keratinocytes after γ-radiation. The data set is classed as cell-based. The conditions noted are these: pre-treatment 24 hours. Here is the method: Keratinocytes pre-treated with Formulations 1, 2 and 3 (Table 9) for 24 hours prior to exposure to 0, 2 and 12 Gy (137Cs) and incubated for a further hour; 37° C., 5% (v/v) CO2, before staining for γH2AX as previously described.

The test system of a further data set is LCL cells. The data set is described as follows: Cell proliferation (Cell Titer-Blue Assay). Format: cell-based, human. To be noted: for EC50: Homo sapiens. The text has this:
Human chronic myelogenous leukemia K562 cells (ATCC No. CCL-243), human large B-lymphocyte non-Hodgkin's lymphoma LCL cells, human leukemic monocyte lymphoma U937 cells (ATCC No. CRL-1593.2), human prostate adenocarcinoma PC3 (ATCC No. CRL-1435) and human gastric carcinoma SNU-16 cells (ATCC No. CRL-5974) were maintained in complete-[…] Park Memorial Institute (RPMI) 1640 medium supplemented with 20 mmol/L HEPES (pH 7.4; GIBCO-Invitrogen, Carlsbad, Calif., USA), 10% (v/v) fetal bovine serum (FBS), 2 mmol/L L-glutamine (GIBCO-Invitrogen), and 80 units gentamicin (GIBCO-Invitrogen). Cells were cultured in suspension in a humidified atmosphere of 5% (v/v) CO2 at 37° C. and were maintained in exponential growth phase. For maintenance, cells were passaged twice per week and seeded at ratios 1:10. Cell proliferation was determined using the Cell Titer-Blue Assay kit (Promega, Madison, Wis., USA). Cells were seeded at 10,000 cells per well in black flat bottom 96-well plates (Nalge Nunc, Penfield, N.Y., USA) and treated with serial doses of hydroxytyrosol (0-3200 μM) and oleuropein (0-12800 μM) for 24, 48 and 120 hours at 37° C., 5% (v/v) CO2. Following incubation with the test samples, Cell-Titer Blue reagent (20 μl per 100 μL) was added to each well and mixed gently for 5 sec prior to 4 hr incubation at 37° C. in a humidified atmosphere of 5% CO2. Fluorescence intensity (λex=550 nm and λem=615 nm) was determined using a Perkin Elmer Victor3 multilabel microplate counter (PerkinElmer, Waltham, Mass., USA). Data were expressed as % relative cell viability compared to untreated cells after correction of subtracting the media control fluorescence reading.
On the technique in general: The colour change of resazurin is a common sign of viable cells or microbes.

Data set [1] deals with PBMC. The data set is described as follows: Western blotting of histone methylation, PBMC. The data set is classed as cell-based, human. To be noted: 100 μM, 24 hours. A general note: Immunoblotting shows a protein as a band on a membrane.
Another data set relates to K562 cells. Kind of data set: Cell viability (Cell-Titer Blue), K562. The data set is classed as cell-based, human. How it is done:
Cells were seeded at densities of 7,500 cells/in black flat bottom 96-well plates (Nalge Nunc, Penfield, N.Y., USA) and treated with a dose response of hydroxytyrosol (0-200 μM), oleuropein (0-800 μM), tyrosol (0-1000 μM) and homovanilic acid (0-1000 μM) for 24 hours at 37° C., 5% (v/v) CO2. Cell viability was determined after 24 hour exposure to hydroxytyrosol and measured using the Cell-Titer Blue® Assay kit (Promega, Madison, Wis., USA) according to the manufacturer's instructions. Cell-Titer Blue reagent was added to each well and incubated for 4 hours at 37° C., 5% CO2, before reading fluorescence intensity (550 nm excitation; 615 nm emission) using the Perkin Elmer Victor3 (Perkin Elmer, MA, USA) multi-label plate reader. Alternatively Cells were seeded at densities of 7,500 cells/in black flat bottom 96-well plates (Nalge Nunc, Penfield, N.Y., USA) and treated with 100 μM hydroxytyrosol for 24 hours at 37° C., 5% (v/v) CO2. […] Fluorescence intensity (λex=550 nm and λem=615 nm) was determined using a Perkin Elmer Victor3 multilabel microplate counter (PerkinElmer, Waltham, Mass., USA). Data were expressed as % relative cell viability compared to untreated cells after correction of subtracting the media control fluorescence reading.

Data set [2] has as its system PBMC. Kind of data set: Cell proliferation (Cell Titer-Blue Assay). Format: cell-based, human. The conditions noted are these: for cell proliferation of PBMC: 120 hours incubation; for EC50: Homo sapiens, 24 hr. Here is the method:
Human peripheral blood mononuclear cells (PBMCs) were fractionated using the Ficoll Plaque fractionation method from whole blood obtained from the Australian Red Cross Blood Bank (ARCB) under ethic approval (#304/12). Cells were harvested fresh on the day of the experiments and maintained in complete-RPMI-1640 medium supplemented with 10% FBS, 2 mM L-glutamine and 20 μg/mL gentamicin at 37° C., 5% (v/v) CO2. Cell proliferation was determined using the Cell Titer-Blue Assay kit (Promega, Madison, Wis., USA). Cells were seeded at 10,000 cells per well in black flat bottom 96-well plates (Nalge Nunc, Penfield, N.Y., USA) and treated with serial doses of hydroxytyrosol (0-3200 μM) and oleuropein (0-12800 μM) for 24, 48 and 120 hours at 37° C., 5% (v/v) CO2. Following incubation with the test samples, Cell-Titer Blue reagent (20 μl per 100 μL) was added to each well and mixed gently for 5 sec prior to 4 hr incubation at 37° C. in a humidified atmosphere of 5% CO2. Fluorescence intensity (λex=550 nm and λem=615 nm) was determined using a Perkin Elmer Victor3 multilabel microplate counter (PerkinElmer, Waltham, Mass., USA). Data were expressed as % relative cell viability compared to untreated cells after correction of subtracting the media control fluorescence reading.

One may read the EC50 as the concentration that produces a half-maximal response. Low values mean higher potency in that assay, high ones lower potency in that assay.

As to `OCCc1ccc(O)c(O)c1` [HT, 4-(2-hydroxyethyl)-1,2-benzenediol], in the data set on human keratinocytes, the “radiation-induced DNA damage” value was “protects”. In addition, in the data set with LCL cells (120 hr), the “EC10 (concentration required to reduce the cell viability of the population to 10%)” value was found to be 177 µM. Besides, the concentration for a half-maximal effect (EC50) was found to be 370 µM in the data set on LCL cells (24 hr), 200 µM in the data set with LCL cells (48 hr), 94 µM in the data set on LCL cells (120 hr) and 855 µM in the data set with PBMC [2]. Besides, the “histone H3 lysine 9 (H3K9) di-methylation” value with PBMC [1] is recorded as “decreased”. Moreover, in the data set on K562 cells (20 or 100 μM, 24 hours), the “cell viability of K562 cells” value is recorded as “significantly reduced in a dose dependent manner”. The “effect on the cytotoxicity of doxorubicin” value in the data set on K562 cells (K562, hydroxytyrosol pre-treatment 24 hours, then doxorubicin) was “enhances the cytotoxicity of doxorubicin”. Moreover, the results for the “cell proliferation of PBMC” value in the data set with PBMC [2] and in the data set with PBMC [2] (listed as hydroxytyrosol) were “increases the proliferation” and “attenuated”, respectively.

Regarding `C/C=C1/[C@H](O[C@@H]2O[C@H](CO)[C@@H](O)[C@H](O)[C@H]2O)OC=C(C(=O)OC)[C@H]1CC(=O)OCCc1ccc(O)c(O)c1` [OL, oleuropein], in the data set with LCL cells (120 hr), the “EC10 (concentration required to reduce the cell viability of the population to 10%)” value came out at 1240 µM. In addition, the EC50 in the data set with LCL cells (24 hr) came out at 403 µM; in the data set with LCL cells (48 hr) it was 1100 µM; in the data set with LCL cells (120 hr), 640 µM; in the data set with PBMC [2] it was 2710 µM.

Values taken from US10231939B2, “Hydroxytyrosol and oleuropein compositions for induction of DNA damage, cell death and LSD1 inhibition” (priority 2012, dated 2019).
